In patent US12637478B2, “Compound, preparation method thereof, and antibiotic composition comprising same” (priority 2020, dated 2026):
≈ marks a conversion by molar mass, not a printed value. Where two headings read alike, the source gives them in different places.

Legend:
E. faecalis^LinR = assay: MIC by broth microdilution (aerobic pathogens), test strain 9; type: cell-based, Linezolid resistant Enterococcus faecalis; settings: Enterococcus faecalis
Procedure: (§1) The antibacterial activity of the compounds of Examples 1 to 48 of the present invention against aerobic pathogens were evaluated by measuring the minimum concentration of the antibiotic capable of inhibiting bacterial growth by 90% compared to the growth of the non-drug treated control group. MIC was measured by the broth microdilution method based on CLSI standards [Reference: Clinical and Laboratory Standards Institute Document. (2000) Methods for Dilution Antimicrobial Susceptibility Test for Bacteria that Grow Aerobically-Fifth Edition: M7-A5. CLSI, Villanova, PA].
(§2) All 13 strains such as methicillin susceptible Staphylococcus aureus (MSSA), methicillin resistant Staphylococcus aureus (MRSA), Vancomycin resistant Staphylococcus aureus (VRSA), Staphylococcus epidermidis, methicillin resistant Staphylococcus epidermidis, Enterococcus faecalis, Vancomycin resistant Enterococcus faecalis, Enterococcus faecium, Vancomycin resistant Enterococcus faecium were used.

S. aureus^MS [1] = assay: MIC by broth microdilution (aerobic pathogens), test strain 1; type: cell-based; settings: Staphylococcus aureus
Procedure: as §1, §2

S. aureus^MS [2] = assay: MIC by broth microdilution (aerobic pathogens), test strain 2; type: cell-based; settings: Staphylococcus aureus
Procedure: as §1, §2

C. difficile 159 = assay: MIC by agar dilution against Clostridioides difficile, test strain 15; type: cell-based
C. difficile 173 = assay: MIC by agar dilution against Clostridioides difficile, test strain 17; type: cell-based; settings: test strain 17, C. difficile 173, anaerobic, agar dilution, read-out: MIC
C. difficile 9689 = assay: MIC by agar dilution against Clostridioides difficile, test strain 13; type: cell-based; settings: test strain 13, C. difficile 9689, anaerobic, agar dilution, read-out: MIC
C. difficile 161 = assay: MIC by agar dilution against Clostridioides difficile, test strain 16; type: cell-based; settings: test strain 16, C. difficile 161, anaerobic, agar dilution, read-out: MIC
C. difficile 174 = assay: MIC by agar dilution against Clostridioides difficile, test strain 18; type: cell-based; settings: test strain 18, C. difficile 174, anaerobic, agar dilution, read-out: MIC
C. difficile 181 = assay: MIC by agar dilution against Clostridioides difficile, test strain 19; type: cell-based; settings: test strain 19, C. difficile 181, anaerobic, agar dilution, read-out: MIC
C. difficile 152 = assay: MIC by agar dilution against Clostridioides difficile, test strain 14; type: cell-based; settings: test strain 14, C. difficile 152, anaerobic, agar dilution, read-out: MIC
S. epidermis = assay: MIC by broth microdilution (aerobic pathogens), test strain 5; type: cell-based; settings: Staphylococcus epidermidis; test strain 5, S. epidermis; read-out: MIC
Procedure: as §1, §2

E. faecalis = assay: MIC by broth microdilution (aerobic pathogens), test strain 7; type: cell-based; settings: Enterococcus faecalis; test strain 7, E. faecalis; read-out: MIC
Procedure: as §1, §2

S. epidermis^MR = assay: MIC by broth microdilution (aerobic pathogens), test strain 6; type: cell-based, Methicillin resistant Staphylococcus epidermidis; settings: Staphylococcus epidermidis; test strain 6, S. epidermis^MR (methicillin resistant); read-out: MIC
Procedure: as §1, §2

E. faecalis^VanA = assay: MIC by broth microdilution (aerobic pathogens), test strain 8; type: cell-based, Vancomycin resistant Enterococcus faecalis; settings: Enterococcus faecalis; test strain 8, E. faecalis^VanA (vancomycin resistant); read-out: MIC
Procedure: as §1, §2

[3] = test strain 15, C. difficile 159, anaerobic, agar dilution, read-out: MIC
[4] = test strain 1, S. aureus^MS, read-out: MIC
[5] = test strain 2, S. aureus^MS, read-out: MIC
[6] = test strain 9, E. faecalis^LinR (linezolid resistant), read-out: MIC

Row | SMILES | MIC (C. difficile 173) | MIC (C. difficile 9689) | MIC (C. difficile 174) | MIC (C. difficile 152) | MIC (S. aureus^MS [1]; [4]) | MIC (S. aureus^MS [2]; [5]) | MIC (S. aureus^MS [1]) | further results
1 | C/C=C1\NC(=O)[C@H]([C@@H](C)O)NC(=O)c2csc(n2)-c2ccc(-c3nc(-c4nc(C(=O)NC5(C(=O)NCCCN6C(=O)CN(CCC(=O)OC)C6=O)CC5)cs4)cs3)nc2-c2csc(n2)[C@H]([C@@H](C)O)NC(=O)c2csc(n2)[C@H](C(C)C)NC(=O)c2csc1n2 [Compound 16] | – | – | – | – | – | – | 1 µg/mL (≈ 0.762 µM) | MIC (E. faecalis^LinR): 0.25 µg/mL (≈ 0.19 µM); MIC (S. aureus^MS [2]): 0.5 µg/mL (≈ 0.381 µM); MIC (C. difficile 159; 159): 0.5 µg/mL (≈ 0.381 µM)
2 | C/C=C1\NC(=O)[C@H]([C@@H](C)O)NC(=O)c2csc(n2)-c2ccc(-c3nc(-c4nc(C(=O)NC5(C(=O)NCCCn6c(=O)[nH]cc([N+](=O)[O-])c6=O)CC5)cs4)cs3)nc2-c2csc(n2)[C@H]([C@@H](C)O)NC(=O)c2csc(n2)[C@H](C(C)C)NC(=O)c2csc1n2 [Compound 22] | 0.5 µg/mL (≈ 0.39 µM) | 0.125 µg/mL (≈ 0.0974 µM) | 0.125 µg/mL (≈ 0.0974 µM) | 0.125 µg/mL (≈ 0.0974 µM) | 0.25 µg/mL (≈ 0.195 µM) | 0.125 µg/mL (≈ 0.0974 µM) | – | MIC (E. faecalis^LinR; [6]): 0.5 µg/mL (≈ 0.39 µM)
3 | C/C=C1\NC(=O)[C@H]([C@@H](C)O)NC(=O)c2csc(n2)-c2ccc(-c3nc(-c4nc(C(=O)NC5(C(=O)NCCCN6C(=O)CN(CCC(=O)O)C6=O)CC5)cs4)cs3)nc2-c2csc(n2)[C@H]([C@@H](C)O)NC(=O)c2csc(n2)[C@H](C(C)C)NC(=O)c2csc1n2 [Compound 19] | – | – | – | – | – | – | 0.5 µg/mL (≈ 0.385 µM) | –
4 | C/C=C1\NC(=O)[C@H]([C@@H](C)O)NC(=O)c2csc(n2)-c2ccc(-c3nc(-c4nc(C(=O)NC5(C(=O)NCCN)CC5)cs4)cs3)nc2-c2csc(n2)[C@H]([C@@H](C)O)NC(=O)c2csc(n2)[C@H](C(C)C)NC(=O)c2csc1n2 [Compound 25] | – | – | – | – | – | – | 1 µg/mL (≈ 0.885 µM) | MIC (S. aureus^MS [2]): 1 µg/mL (≈ 0.885 µM)

The next lines start with results.

Row | MIC (C. difficile 173) | MIC (C. difficile 9689) | MIC (C. difficile 174) | MIC (C. difficile 152) | MIC (S. aureus^MS [1]; [4]) | MIC (S. aureus^MS [2]; [5]) | SMILES | MIC (S. aureus^MS [1]) | further results
5 | 1 µg/mL (≈ 0.807 µM) | 0.5 µg/mL (≈ 0.403 µM) | 0.5 µg/mL (≈ 0.403 µM) | 0.5 µg/mL (≈ 0.403 µM) | – | – | C/C=C1\NC(=O)[C@H]([C@@H](C)O)NC(=O)c2csc(n2)-c2ccc(-c3nc(-c4nc(C(=O)NC5(C(=O)NCCn6cc([N+](=O)[O-])nc6C)CC5)cs4)cs3)nc2-c2csc(n2)[C@H]([C@@H](C)O)NC(=O)c2csc(n2)[C@H](C(C)C)NC(=O)c2csc1n2 [Compound 45] | – | MIC (C. difficile 161): 0.5 µg/mL (≈ 0.403 µM); MIC (C. difficile 181): 1 µg/mL (≈ 0.807 µM); MIC (C. difficile 159; [3]): 0.5 µg/mL (≈ 0.403 µM)
6 | – | – | – | – | 0.5 µg/mL (≈ 0.399 µM) | 1 µg/mL (≈ 0.797 µM) | C/C=C(\NC(=O)c1csc(-c2csc(-c3ccc4c(n3)-c3csc(n3)[C@H]([C@@H](C)O)NC(=O)c3csc(n3)[C@H](C(C)C)NC(=O)c3csc(n3)/C(=C/C)NC(=O)[C@H]([C@@H](C)O)NC(=O)c3csc-4n3)n2)n1)C(=O)NCCCN1CCN(C(C)C)CC1 [Compound 34] | – | MIC (S. epidermis): 0.25 µg/mL (≈ 0.199 µM); MIC (E. faecalis): 1 µg/mL (≈ 0.797 µM); MIC (S. epidermis^MR): 0.5 µg/mL (≈ 0.399 µM); MIC (E. faecalis^VanA): 1 µg/mL (≈ 0.797 µM)
7 | – | – | – | – | 0.25 µg/mL (≈ 0.206 µM) | 0.5 µg/mL (≈ 0.412 µM) | C/C=C1\NC(=O)[C@H]([C@@H](C)O)NC(=O)c2csc(n2)-c2ccc(-c3nc(-c4nc(C(=O)NC5(C(=O)NCCCCCCB(O)O)CC5)cs4)cs3)nc2-c2csc(n2)[C@H]([C@@H](C)O)NC(=O)c2csc(n2)[C@H](C(C)C)NC(=O)c2csc1n2 [Compound 27] | – | MIC (E. faecalis^LinR; [6]): 0.5 µg/mL (≈ 0.412 µM)
8 | – | – | – | – | 0.5 µg/mL (≈ 0.395 µM) | 1 µg/mL (≈ 0.79 µM) | C/C=C1\NC(=O)[C@H]([C@@H](C)O)NC(=O)c2csc(n2)-c2ccc(-c3nc(-c4nc(C(=O)NC5(C(=O)NCCN6CCN(CCCC#N)CC6)CC5)cs4)cs3)nc2-c2csc(n2)[C@H]([C@@H](C)O)NC(=O)c2csc(n2)[C@H](C(C)C)NC(=O)c2csc1n2 [Compound 31] | – | MIC (S. epidermis): 0.25 µg/mL (≈ 0.198 µM); MIC (E. faecalis): 1 µg/mL (≈ 0.79 µM); MIC (S. epidermis^MR): 0.5 µg/mL (≈ 0.395 µM); MIC (E. faecalis^VanA): 1 µg/mL (≈ 0.79 µM)
9 | 1 µg/mL (≈ 0.816 µM) | 0.5 µg/mL (≈ 0.408 µM) | 0.5 µg/mL (≈ 0.408 µM) | 0.5 µg/mL (≈ 0.408 µM) | – | – | C/C=C(\NC(=O)c1csc(-c2csc(-c3ccc4c(n3)-c3csc(n3)[C@H]([C@@H](C)O)NC(=O)c3csc(n3)[C@H](C(C)C)NC(=O)c3csc(n3)/C(=C/C)NC(=O)[C@H]([C@@H](C)O)NC(=O)c3csc-4n3)n2)n1)C(=O)NCCn1ccnc1[N+](=O)[O-] [Compound 43] | – | MIC (C. difficile 161): 0.5 µg/mL (≈ 0.408 µM); MIC (C. difficile 181): 0.5 µg/mL (≈ 0.408 µM); MIC (C. difficile 159; [3]): 0.5 µg/mL (≈ 0.408 µM)
